Assay results: US20060194800A1, “Pteridine derivatives as nitric oxide synthase activators” (University of Strathclyde, priority 2005, published 2006)
Entries after “also recorded” stand apart in the source; their conditions may differ.

What was measured:
[1] = tested on: rat pulmonary artery; assay: Rat pulmonary artery ring relaxation (endogenous tetrahydrobiopterin present); conditions: normal rings, phenylephrine-contracted
Procedure: Rings (5 mm long) of rat pulmonary artery and aorta, were supported on a pair of intraluminal wires at 1 gm tension for one hour and then contracted with their EC50 phenylephrine concentration, which for pulmonary artery was 3.6×10^−8 M (derived from preliminary experiments) and for aorta was 11.8×10^−8 M (from the previously published literature). The rings were then relaxed with carbachol (10 μM). If the relaxation to carbachol was >75%, then the tissues were used to generate dose responses by addition of tetrahydrobiopterin (BH4) or the analogues. Stock BH4 was stored at −20° C. and the dilutions were prepared using saline just before adding the drug into the bath. Solutions of analogues were stored at 4° C. Cumulatively increasing concentrations of the analogues were added to the bath and the extent of relaxation was measured when it had stabilised. Another ring from the same rat was treated in parallel with the solvent for the analogue. The solvent used was NH4OH. The results are shown graphically in FIGS. 1 and 2.

[2] = tested on: rat pulmonary artery; assay: BH4 depleted (DAHP) rat pulmonary artery relaxation
Procedure: Rat pulmonary artery or aorta rings (as above) were placed in 15 ml tubes containing 2-3 ml of MEM (minimal essential medium) solution containing 0.1% bovine serum albumin, 100 U/ml penicillin and […] streptomycin. Some of the tubes in addition received diamino-hydroxy-pyrimidine (DAHP) 10^−2 M, an inhibitor of GTP cyclohydrolase, the rate-limiting step in tetrahydrobiopterin synthesis. The tubes were incubated at 37° C. for six hours. […] After the incubation with DAHP or the control incubation with the medium (MEM) alone, the rings were removed and then their relaxation in response to the analogue (or solvent NH4OH) was tested as above. Dose response curves of DAHP-treated tissues were compared to the control tissues treated in MEM alone for 6 hrs. The results are shown graphically in FIGS. 3 and 4. […] Thus WSG1002 is acting to enhance the ability of the endothelium to form NO and is not acting merely as a NO donor. The above procedures were used to mimic cardiovascular disease, by treating aorta and pulmonary artery rings with an inhibitor of the enzyme GTP cyclohydrolase, which is the rate-limiting step in the formation of tetrahydrobiopterin by cells. Treatment with this inhibitor, DAHP, for 6 hours reduced endogenous tetrahydrobiopterin levels in arteries to 4% of the normal content. […] This was found in both pulmonary artery and aorta (FIGS. 3 and 4). […] The only effect seen was a contraction—the opposite to the action of WSG1002—at the highest concentration of tetrahydrobiopterin. […] WSG1002 has an EC50 of approximately 10 nM.

- EC50 ([2]; Rattus norvegicus, DAHP-treated artery rings, tissue not specified): ~10 nM
Compound: CC(=O)C1=Nc2c(nc(N)[nH]c2=O)NC1(C)C [wsg1002, 6-Acetyl-2-amino-7,7-dimethyl-7,8-dihydro-3H-pteridin-4-one]
- relaxation of rat pulmonary artery rings [1]: no action; also recorded: no effect
- relaxation of rat pulmonary artery rings ([2]; DAHP 10^-2 M for 6 h, tetrahydrobiopterin depleted): significant and physiologically important vasodilatation; also recorded: substantial relaxation
- relaxation of pulmonary artery ring in presence of L-NAME ([2]; L-NAME 100 μM, same result in normal and DAHP-treated rings): no relaxation
